Values after ≈ are worked out from the molar mass of the structure shown. Values joined by “and” are separate entries in the source; they are usually repeats but may differ in a detail not shown here. Equal values may be shown once. Read-outs that look alike come from different tables or passages of the source.
Assays:
[1] = Phase solubility study: equilibrium solubility of S-119 in buffers with excipients; type: physicochemical; details: for solubility enhancement vs pure buffer: pH 2.0
Protocol: (§5) Excess amounts of S-119 were added to buffered aqueous solutions containing increasing concentrations of excipients.
(§6) In order to analyze the information on solubilization, micelle formation and complexation obtained in the present study, the standard Gibbs energy (at 25 °C) of the outlined processes was calculated by the following equations:(7) ΔGS0(Cexc)=−RTlnS2/S20, where ΔGS0(Cexc) —the standard free energy of solubilization—transferring a compound from the aqueous buffer solution to the excipient solution of a defined concentration (Cexc), S20 and S2 —the solubility of a drug in pure buffer and at a defined excipient concentration, respectively; R is the universal gas constant; T is the standard temperature of 25 °C (8) ΔGC^0=−RTlnKs where ΔGC0 is the change of the complexation Gibbs energy, KS is the stability constant of the complexation reaction (9) ΔGm/w0=−RTlnKm/w where ΔGm/w0 is the standard Gibbs energy of the partition between the micelle and water phases, Km/w is the partition coefficient.

[2] = Complexation with α-CD (phase solubility, Higuchi and Connors); type: physicochemical; details: for Stability constant (KS): S-119/α-CD complex; for Stability constant (KS) / Complexation efficiency (CE) / Gibbs free energy of complexation (ΔGC0): 25 °C; for Complexation efficiency (CE): S-119/α-CD
Protocol: as §5, §6

[3] = Complexation with β-CD (phase solubility, Higuchi and Connors); type: physicochemical; details: for Stability constant (KS): S-119/β-CD complex; for Stability constant (KS) / Complexation efficiency (CE) / Gibbs free energy of complexation (ΔGC0): 25 °C; for Complexation efficiency (CE): S-119/β-CD
Protocol: as §5, §6

[4] = Complexation with HP-β-CD (phase solubility, Higuchi and Connors); type: physicochemical; details: for Gibbs free energy of complexation (ΔGC0) / Stability constant (KS) / Complexation efficiency (CE): 25 °C; for Stability constant (KS): S-119/HP-β-CD complex; for Complexation efficiency (CE): S-119/HP-β-CD
Protocol: as §5, §6

[5] = Complexation with O-M-β-CD (phase solubility, Higuchi and Connors); type: physicochemical; details: for Gibbs free energy of complexation (ΔGC0) / Stability constant (KS) / Complexation efficiency (CE): 25 °C; for Stability constant (KS): S-119/O-M-β-CD complex; for Complexation efficiency (CE): S-119/O-M-β-CD
Protocol: as §5, §6

[6] = In vitro permeability, Franz diffusion cell, PermeaPad barrier; type: in vitro ADME; details: for Papp at 5 h: read-out: Papp, PermeaPad (PP)
Protocol: (§1) Permeability experiments were performed using the reverse dialysis set-up adapted to the Franz diffusion cell (PermeGear, Inc., Hellertown, PA, USA). This method was successfully applied by di Cagno et al. for the permeability evaluation of a whole set of diverse drugs. The donor solution of the investigated compound was placed in the lower chamber. The membrane was mounted between the donor and acceptor chambers. At the start of the experiment, the upper (acceptor) compartment was filled with the respective pure buffer. The donor solution was stirred with a magnetic stirrer bar. The samples of 0.5 mL were withdrawn from the receptor solution each 30 min over 5 h and replaced with the same volume of pure buffer. The volume of the donor solution in the lower compartment was 7 mL and the receptor volume was 1 mL. A schematic diagram of the equipment is illustrated in Figure 2.
(§2) Two types of barriers were applied for the permeability evaluation: the regenerated cellulose membrane (RC) with a molecular weight cut off MWCO 12–14 kDa (Standard Grade RC Dialysis Membrane, Flat Width 45 mm) and the PermeaPad (PP) barrier (PHABIOC, Germany, www.permeapad.com, accessed on 20 May 2021). The PermeaPad barrier was used as received from the supplier. The cellulose membrane was pretreated with distilled water for 30 min and the traces of water were removed with filter paper before use. The membrane effective surface area was 0.785 cm^2. Buffer solution pH 2.0 was applied throughout the experiment due to impossibility of the drug detection in the receptor solution at pH 7.4, where S-119 solubility is extremely low. […] The temperature of the system was maintained at 37.0 ± 0.1 °C. The concentrations of the sample solutions were measured using spectrophotometer (Spectramax 190; Molecular devices, Molecular Devices Corporation, California, CA, USA) in 96-well UV black plates (Costar) at λ = 261 nm. The permeation plots were constructed as the amount of the permeated drug over the surface area (dQ/A) versus time (t). Flux (J) was calculated as a slope of permeation plots by the equation:(2) J=dQ/A×dt
(§3) The slope (J) normalized by the concentration of the drug in the donor compartment (C0) represents the apparent permeability coefficient (Papp):(3) Papp=J/C0
(§4) The average value of Papp from at least 3 experiments was taken into consideration.

[7] = In vitro permeability, Franz diffusion cell, regenerated cellulose membrane; type: in vitro ADME; details: for Papp at 5 h: read-out: Papp, Cellulose Membrane (RC)
Protocol: as §1, §2, §3, §4

[8] = cited from earlier work
[9] = design: method as in doi:10.1016/j.molliq.2021.116535; details: cited from earlier work
[10] = Micellar solubilization by non-ionic surfactants (solubilization capacity, micelle/water partition); details: F127; pH 7.4; 25 °C
Protocol: Moreover, the increase in the surfactant concentration can reduce the number of hydrogen binding sites available for the association of the compound and surfactant. At that point, the surfactant molecules interact with water, affect its structuring and hinder the interactions with positively charged species. […] To this end, the solubilization capacity (χ) representing the amount of the compound that can be solubilized by one mole of polymer was calculated using the following equation [53]:(4) χ=(S2−S20)/(Csurf−CMC) where S2 and S20 are the total solute solubility at a particular concentration of surfactant solution and the intrinsic solute solubility, respectively; Csurf is the surfactant concentration; CMC is the surfactant critical micelle concentration. All concentrations are expressed in molarity. Taking into account that above the CMC the concentration of surfactant monomers is equal to the CMC, the concentration of micelles can be determined as (Csurf − CMC). The CMC of Brij S20 and F127 were taken from the literature [54, 55, 56, 57]. […] Besides this, a micelle/water molar partition coefficient (Km/w) was derived using the following equation [58]:(5) Km/w=Sm/S20=(S2−S20)/S20
The favorable/unfavorable character of any process can be assessed using Gibbs free energy.

[11] = donor: pure buffer pH 2.0; cited from earlier work
[12] = cationic species of FCZ in acidic solution; first value, CD not printed (β-CD assumed); cited from earlier work
[13] = cationic species of FCZ in acidic solution; second value, CD not printed (HP-β-CD assumed); cited from earlier work
[14] = cited from earlier work; remark: listed apart in the source
[15] = donor: 1.5 w/v% 6-O-M-β-CD in buffer pH 2.0, 37 °C
[16] = donor: 1.5 w/v% HP-β-CD in buffer pH 2.0, 37 °C
[17] = donor: 1.5 w/v% β-CD in buffer pH 2.0, 37 °C
[18] = donor: pure buffer pH 2.0, 37 °C
[19] = pH 2, donor: 1.5 w/v% 6-O-M-β-CD in buffer pH 2.0, 37 °C
[20] = pH 2, donor: 1.5 w/v% HP-β-CD in buffer pH 2.0, 37 °C
[21] = pH 2, donor: 1.5 w/v% β-CD in buffer pH 2.0, 37 °C
[22] = pH 2, donor: pure buffer pH 2.0, 37 °C

OC(CN1CCN(CC(O)(Cn2cncn2)c2ccc(F)cc2F)CC1)(Cn1cncn1)c1ccc(F)cc1F (stereo not drawn) [S-119, 3,3′-(piperazine-1,4-diyl)bis(2-(2,4-difluorophenyl)-1-(1H-1,2,4-triazol-1-yl)propan-2-ol)]
solubility growth vs pure buffer ([1]; 0.0015 M β-CD, pH 7.4): 6.8 fold
solubility growth vs pure buffer ([1]; 0.01 M HP-β-CD, pH 7.4): 24 fold
solubility growth vs pure buffer ([1]; 0.07 M HP-β-CD, pH 7.4): 151 fold
solubility growth vs pure buffer ([1]; 20% PVP): 232 fold
solubility enhancement vs pure buffer ([1]; 10 w/v% PEG 6000): 1.45 fold
solubility enhancement vs pure buffer ([1]; 10 w/v% PEG 35000): 1.20 fold
solubility enhancement vs pure buffer ([1]; 10 w/v% PVP): 1.32 fold
growth of solubility vs pure buffer ([1]; pH 7.4, 10 w/v% Brij S20): 199 fold
growth of solubility vs pure buffer ([1]; pH 7.4, 10 w/v% F-127): 281 fold
extent of the solubilization vs pure buffer ([1]; pH 7.4, PEG 6000): 193 fold
extent of the solubilization vs pure buffer ([1]; pH 7.4, PVP): 232 fold
Stability constant (KS) ([2]; pH 2.0): 5.0 ± 0.2 M⁻¹ and 5 M⁻¹
Stability constant (KS) ([2]; pH 7.4): 304.4 ± 17 M⁻¹
Complexation efficiency (CE) ([2]; pH 2.0): 2.2%
Complexation efficiency (CE) ([2]; pH 7.4): 1.2%
phase solubility diagram type (Higuchi and Connors classification) ([2]; α-CD, both pHs): AL-type
Gibbs free energy of complexation (ΔGC0) ([2]; α-CD, pH 2.0): -0.956 kcal/mol
Gibbs free energy of complexation (ΔGC0) ([2]; α-CD, pH 7.4): -3.387 kcal/mol
Stability constant (KS) ([3]; pH 2.0): 27.4 ± 1.0 M⁻¹ and 27.4 M⁻¹
Stability constant (KS) ([3]; pH 7.4): 4424.9 ± 162.7 M⁻¹
Complexation efficiency (CE) ([3]; pH 2.0): 12.2%
Complexation efficiency (CE) ([3]; pH 7.4): 17.7%
phase solubility diagram type (Higuchi and Connors classification) ([3]; β-CD, linear region 0 to 0.003 M CD): BS-type
Gibbs free energy of complexation (ΔGC0) ([3]; β-CD, pH 2.0): -1.96 kcal/mol
complex stability relative to FCZ complex ([3]; β-CD, pH 7.4): 47 fold
Gibbs free energy of complexation (ΔGC0) ([3]; β-CD, pH 7.4): -4.974 kcal/mol
phase solubility diagram type (Higuchi and Connors classification) ([4]; HP-β-CD, both pHs): AL-type
Gibbs free energy of complexation (ΔGC0) ([4]; HP-β-CD, pH 2.0): -1.57 kcal/mol
complex stability relative to FCZ complex ([4]; HP-β-CD, pH 7.4): 52 fold
Gibbs free energy of complexation (ΔGC0) ([4]; HP-β-CD, pH 7.4): -4.577 kcal/mol
Stability constant (KS) ([4]; pH 2.0): 14.0 ± 0.6 M⁻¹
Stability constant (KS) ([4]; pH 7.4): 2261.0 ± 79.0 M⁻¹
Complexation efficiency (CE) ([4]; pH 2.0): 6.2%
Complexation efficiency (CE) ([4]; pH 7.4): 9.1%
phase solubility diagram type (Higuchi and Connors classification) ([5]; O-M-β-CD, both pHs): AL-type
Gibbs free energy of complexation (ΔGC0) ([5]; O-M-β-CD, pH 2.0): -1.74 kcal/mol
Gibbs free energy of complexation (ΔGC0) ([5]; O-M-β-CD, pH 7.4): -4.866 kcal/mol
Stability constant (KS) ([5]; pH 2.0): 18.7 ± 0.7 M⁻¹
Stability constant (KS) ([5]; pH 7.4): 3693.4 ± 185.3 M⁻¹
Complexation efficiency (CE) ([5]; pH 2.0): 8.3%
Complexation efficiency (CE) ([5]; pH 7.4): 14.8%
permeability class (classification of di Cagno et al. for PermeaPad) ([6]; 1.5 w/v% CDs in donor solution, pH 2.0): low-medium permeability class
permeability decrease vs pure buffer ([6]; PP barrier, 1.5 w/v% O-M-β-CD donor solution, pH 2.0): 2.63 fold
permeability class (classification of di Cagno et al. for PermeaPad) ([6]; buffer pH 2.0): highly permeated substance
flux J, PermeaPad (PP) [6, 15]: 1.01 × 10^−5 µM∙cm^−2∙s^−1
flux J, PermeaPad (PP) [6, 16]: 1.00 × 10^−5 µM∙cm^−2∙s^−1
flux J, PermeaPad (PP) [6, 17]: 9.93 × 10^−6 µM∙cm^−2∙s^−1
flux J, PermeaPad (PP) [6, 18]: 2.20 × 10^−5 µM∙cm^−2∙s^−1
Papp at 5 h [6, 19]: 5.62 ×10⁻⁶ cm/s
Papp at 5 h [6, 20]: 7.81 ×10⁻⁶ cm/s
Papp at 5 h [6, 21]: 6.12 ×10⁻⁶ cm/s
Papp at 5 h [6, 22]: 14.8 ×10⁻⁶ cm/s
permeability decrease vs pure buffer ([7]; RC membrane, 1.5 w/v% HP-β-CD donor solution, pH 2.0): 1.87 fold
flux J, Cellulose Membrane (RC) [7, 15]: 2.68 × 10^−5 µM∙cm^−2∙s^−1
flux J, Cellulose Membrane (RC) [7, 16]: 2.21 × 10^−5 µM∙cm^−2∙s^−1
flux J, Cellulose Membrane (RC) [7, 17]: 2.90 × 10^−5 µM∙cm^−2∙s^−1
flux J, Cellulose Membrane (RC) [7, 18]: 3.49 × 10^−5 µM∙cm^−2∙s^−1
Papp at 5 h [7, 19]: 23.1 ×10⁻⁶ cm/s
Papp at 5 h [7, 20]: 14.5 ×10⁻⁶ cm/s
Papp at 5 h [7, 21]: 19.6 ×10⁻⁶ cm/s
Papp at 5 h [7, 22]: 27.1 ×10⁻⁶ cm/s
logD^oct [8]: 1.43
solubility in aqueous solutions ([9]; pH 2.0): 4450 µM (≈ 2490 µg/mL)
solubility in aqueous solutions ([9]; pH 7.4): 40.1 µM (≈ 22.5 µg/mL)
Gibbs free energy of micelle formation (ΔGm/w0) [10]: -6.205 kcal/mol

OC(Cn1cncn1)(Cn1cncn1)c1ccc(F)cc1F [FCZ, fluconazole]
flux J, PermeaPad (PP) ([6]; 5 h, pH 2): 3.50 × 10^−5 µM∙cm^−2∙s^−1
flux J, Cellulose Membrane (RC) ([7]; 5 h, pH 2): 1.31 × 10^−4 µM∙cm^−2∙s^−1
Papp at 5 h [7, 22]: 49 ×10⁻⁶ cm/s
Papp, PermeaPad (PP) [11]: (1.74 ± 0.03) × 10^−5 cm∙s^−1
KS [12]: 10.7 M⁻¹
KS [13]: 13.5 M⁻¹
solubility growth ([14]; 0.0016 M aqueous β-CD solution): 1.1 fold
solubility increase ([14]; 0.004 M HP-β-CD): 1.2 fold
higher solubility ([14]; 0.08 M aqueous HP-β-CD): 4 fold
solubility enhancement ([14]; aqueous 0.02 M β-CD): 1.84 fold

From PMC8621413, “New Antifungal Compound: Impact of Cosolvency, Micellization and Complexation on Solubility and Permeability Processes” (Pharmaceutics, 2021)
